Reference: US20240425486A1, “FUSED BICYCLIC SUBSTITUTED N-(1H-INDOL-7-YL)BENZENESULFONAMIDES AND USES THEREOF” (Triana Biomedicines, Inc., priority 2021, published 2024)

Legend:
[1] = target: DCAF15/RBM39 (Homo sapiens (Human), UniProt Q14498+Q66K64); assay: AlphaLISA compound-induced DCAF15-RBM39 ternary complex formation; format: binding; settings: His-tagged DCAF15 complex and biotin-carrying RBM39
Protocol: Example 7: Quantitative Evaluation of Compound-Induced Ternary Complex Formation Using Amplified Luminescent Proximity Homogeneous Assay
Compound-induced DCAF15-RBM39 ternary complex formation was monitored using AlphaLISA® assays (Perkin Elmer, Waltham, MA). Test compounds were first collected in a 384-well microplate (cat. #781280, Grenier Bio-One, Monroe, NC) as 2 mM stocks in 100% dimethyl sulfoxide (DMSO). These stocks were then serially diluted in DMSO by 3-fold into a new plate (cat. #781280, Grenier Bio-One, Monroe, NC) using a Mosquito HTS dispenser (Mosquito® HTS, SPT Labtech, Boston, MA). 0.2 μL of these diluted stocks were then dispensed into a 384-well Optiplate (cat. #6007290, Perkin Elmer, Waltham, MA) in duplicate wells, to assemble the final assay plate consisting of duplicated dose ranges. Separately, a protein mixture consisting of His-tagged DCAF15 complex and biotin-carrying RBM39, each at 408 nM (2.04×), was prepared in 50 mM HEPES, pH 7.5, 100 mM NaCl, 2 mM MgCl2, 0.1% BSA, 2 mM TCEP, 0.05% Tween-20 (dilution buffer). 9.8 μL of this protein mixture was then mixed with the compounds in the assay plate and incubated for one hour at room temperature. Reaction mixtures with no compounds added were included as negative controls, while a His-tagged and biotinylated GST protein was included to track general assay performance. Nickel Chelate AlphaLISA Acceptor beads (cat. #AL108M, Perkin Elmer, MA) and AlphaScreen Streptavidin Donor beads (cat. #6760002, Perkin Elmer, Waltham, MA) were prepared separately in the dilution buffer as 4× stocks (80 ug/ml). The beads were then added to the assay plate sequentially with incubation at room temperature for 1-2 hours after each addition. Signals were recorded using EnVision 2104 Multilabel Plate Reader (Perkin Elmer, Waltham, MA) and titration curves were generated in GraphPad Prism (7.00, GraphPad, La Jolla, CA).

[2] = target: DCAF15 (Homo sapiens (Human), UniProt Q66K64); assay: HTRF competition assay, binary interaction with DCAF15; format: binding; settings: competition with Alexa Fluor 647 tracer
Protocol: Example 8: Measurement of Binary Interaction Between Compounds and DCAF15 Using Homogeneous Time Resolved Fluorescence (HTRF)
DCAF15 interactions with test compounds were monitored using HTRF competition assays (Cisbio, Bedford, MA). Test compounds were first collected in a 384-well microplate (cat. #781280, Grenier Bio-One, Monroe, NC) as 10 mM stocks in 100% dimethyl sulfoxide (DMSO). A second stock plate (cat. #781280, Grenier Bio-One, Monroe, NC) was prepared through 3-fold serial dilution in DMSO of the afore-mentioned stocks using a Mosquito HTS dispenser (mosquito@ HTS, SPT Labtech, Boston, MA). 0.2 μL of these diluted stocks were then dispensed into a 384-well Optiplate (cat. #6007290, Perkin Elmer, Waltham, MA) in duplicate wells, to assemble the assay plate. The tracer molecule containing an Alexa Fluor 647 probe was prepared in 25 mM HEPES pH 7.5, 100 mM NaCl, 0.1 mg/ml BSA, 0.005% Tween 20, 0.5 mM TCEP (dilution buffer) to 612 nM (2.04×). Separately, His-tagged DCAF15 complex was prepared at 32 nM (4×) in the dilution buffer, and mAb Anti-6His-Eu cryptate Gold (cat. #61H12KLA, Cisbio, Bedford, MA) at 4× dilution in the detection buffer (cat. #61DB9RDF, Cisbio, Bedford, MA). These two solutions were mixed and incubated for 15 min at room temperature. 9.8 μL of the tracer solution and 10 μL of the DCAF15/mAb Anti-6His-Eu cryptate Gold mixture were added sequentially to each well in the assay plate. Reaction mixtures with no DCAF15 added were included as positive controls. The final mixture was incubated for an hour at room temperature and spun down briefly before data collection at 615 nm and 666 nm using EnVision 2104 Multilabel Plate Reader (Perkin Elmer, Bedford, MA). Binding was estimated based on ratiometric analysis and titration curves were generated in GraphPad Prism (7.00, GraphPad, La Jolla, CA).

[3] = target: RBM39 (Homo sapiens (Human), UniProt Q14498+Q66K64); assay: Western blot assay for degradation of RBM39 in HCT116 cells; format: cell-based; settings: Incubation Time: 4 hours, read-out: RBM39 Degradation: IC50 (uM) [Incubation Time: 4 hours]
Protocol: Example 9: Western Blot Assay Procedure for Assessing Degradation of RBM39 in HCT116 Cells
HCT116 cells were used with passage numbers ranging from 13 to 25. Cells were seeded in 12-well plated at a density of 1 million cells per well in 1 mL cell culture medium containing McCoy's 5A medium (Cat. #16600082, ThermoFisher, Waltham, MA), 10% Fetal Bovine Serum (Cat. #26140, ThermoFisher, Waltham, MA) and 1% Pen-Strep (Cat. #. 15070063, ThermoFisher, Waltham, MA) and incubated overnight. The next morning, compounds were serially diluted (1:3, 9 points) in the medium separately and were prepared 2× the final assay concentration. Subsequently, 1.0 mL medium containing DMSO or the appropriate concentration of each compound was added to respective wells. The final DMSO concentration in each well was 0.1%. […] Cells were then washed once with 1 mL of ice cold Dulbecco's phosphate-buffered saline (Cat. #28374, ThermoFisher, Waltham, MA) and then lysed with 100 μl of lysis buffer containing 1×RIPA (Cat. #. 89900, ThermoFisher, Waltham, MA) and HALT protease and phosphatase inhibitor (Cat. #78442, ThermoFisher, Waltham, MA) on ice for 10 minutes with intermittent rocking. Lysates were then sonicated in a sonication bath (3 pulses of 10 sec each with 1 min incubation on ice between each pulse). Samples were then centrifuged for 20 min at 14,000 rpm for 20 min. Supernatants were then transferred to fresh microfuge tubes and stored frozen at −80° C. until use. Total protein quantitation in lysate samples was done using the BCA protein quantitation kit following the manufacturer's instructions. […] Band intensity in images was quantified using the Image Studio Lite software (Version 5.2). Signal intensity for RBM-39 specific bands were normalized using the signal intensity for […] band, and percent degradation was assessed by comparing RBM39 signal in compound-treated vs. DMSO-treated samples.

| SMILES | EC50 [1] | IC50 [2] | DC50 [3] |
| --- | --- | --- | --- |
| O=S1(=O)Cc2ccc(S(=O)(=O)Nc3ccc(Cl)c4c(Cl)c[nH]c34)cc2C1 [Compound 17, N-(3,4-dichloro-1H-indol-7-yl)-1,3-dihydrobenzo[c]thiophene-5-sulfonamide 2,2-dioxide] | ≤ 1000 nM | 1 to 10 µM | ≤ 1 µM |
| O=C1NCc2cc(S(=O)(=O)Nc3ccc(Cl)c4c(Cl)c[nH]c34)ccc2O1 [Compound 42, N-(3,4-dichloro-1H-indol-7-yl)-2-oxo-3,4-dihydro-2H-benzo[e][1,3]oxazine-6-sulfonamide] | ≤ 1000 nM | 1 to 10 µM | ≤ 1 µM |
| O=C1CSc2ccc(S(=O)(=O)Nc3ccc(Cl)c4c(Cl)c[nH]c34)cc2N1 [Compound 44, N-(3,4-dichloro-1H-indol-7-yl)-3-oxo-3,4-dihydro-2H-benzo[b][1,4]thiazine-6-sulfonamide] | ≤ 1000 nM | – | ≤ 1 µM |
